According to patent US4485109A, “4-Aryl-4-piperidinecarbinols” (E. I. Du Pont de Nemours and Company, priority 1983, dated 1984):
Where two headings read alike, the source gives them in different places.

Assays:
[1] = test system: tetrabenazine-induced depression; assay: Antagonism (prevention) of tetrabenazine-induced sedation and depression in mice, orally; format: in vivo, mice (Carworth CF1 S female); conditions: tetrabenazine 32 mg/kg i.p. 30 min after compound; for ED50: Mus musculus, po, 1 h
Text: A standard procedure for detecting and comparing the antidepressant activity of the compounds of this invention, for which there is good correlation with human efficacy, is the prevention of tetrabenazine-induced sedation and depression in mice. (Everett, "The Dopa Response Potentiation Test and Its Use in Screening for Antidepressant Drugs", pp. 164-167 in Antidepressant Drugs [Proceedings of the First International Symposium], S. Garattini and M. N. G. Dukes (editors), 1967).
Groups of 10 Carworth CF1 S female mice, 18-21 g each, each fasted 1.5 h and were intubated with antagonist compounds at oral doses, such as 0, 1, 3, 9, 27 and 81 mg/kg in 0.20 mL of 1% Methocel® (methylcellulose).The mice were challenged 30 minutes later with tetrabenazine (as the methanesulfonate), 32 mg/kg intraperitoneally (dissolved in 0.20 mL 0.05% aqueous KCl at pH 2.0). One hour after administration of antagonist (30 minutes after administration of tetrabenazine) the mice were examined for signs of exploratory activity and ptosis (eye lid closure). Normal exploratory activity (relief from sedation) was recorded when a mouse, lifted by the tail from a group of 10 in a testing box and placed on a stainless steel testing box lid (12.5 inch (31.8 cm) by 8 inch (20.3 cm) with 0.33 inch mesh), either turned its head horizontally 30° in both directions or moved to the edge of the screen within 10 seconds after being placed on the screen. Relief from ptosis was recorded when, at exactly two seconds after placing the mouse facing the observer, lid closure was less than 50% in both eyes.

[2] = Anorexia test from CNS screen (milk consumption in fasted mice); format: in vivo; conditions: fasted female mice, 0.5 h after dosing, 30 min milk access, ED50 estimated from quantal responses; for ED50: Mus musculus, po, 0.5 h
Protocol: Female mice weighing 16-20 grams and fasted overnight for 17-21 h are used in these studies. At 0.5 h after administration of graded oral doses of compound prepared in aqueous Methocel® (methylcellulose, viscosity 100 CPS, grade MC, Dow Chemical Co.) and 2.8% Tween 80 and dosed at 0.1 mL per 10 grams of body weight, each mouse is transferred to an individual, clear, Lucite® compartment (13.3 cm×12.7 cm×12.7 cm) with a 0.64 cm×0.64 cm wire mesh floor. Five compartments are linearly arranged in each cage unit. Inside each compartment is a section of a black Lucite® bar (13 cm×1.2 cm×1.2 cm), in the top of which are ten spot depressions (0.8 cm diameter), each containing 0.05 mL of 50% sweetened condensed milk (Borden's Eagle Brand). 30 Minutes later the mice are returned to the "shoe-box" containers and the number of milk spots consumed by each mouse is counted. Fractions of spots consumed are also estimated and counted. Five mice […] per drug dose can drink a maximum of 50 spots (2.5 mL of milk). Nine or fewer spots consumed by 5 mice is considered to indicate anorexia. ED50 values are estimated based on the quantal responses obtained.

[3] = test system: tetrabenazine-induced depression; assay: Antagonism (prevention) of tetrabenazine-induced sedation and depression in mice, orally; format: in vivo, mice (Carworth CF1 S female); conditions: Mus musculus, po, footnote *: peak time values
[4] = read-out: ORAL ED50 for prevention of exploratory loss, mice, oral, at one hour post-drug
[5] = read-out: ORAL ED50 for prevention of ptosis, mice, oral, at one hour post-drug
[6] = mice, oral, at one hour post-drug, 60 min

Row | Compound | ED50 [1, 4] | ED50 [1, 5] | ED50 [2] | ED50 ([3]; read-out: ORAL ED50 for prevention of exploratory loss (peak time value), mice, oral) | ED50 ([3]; read-out: ORAL ED50 for prevention of ptosis (peak time value), mice, oral) | ORAL ED50 for prevention of exploratory loss [1, 6] | ORAL ED50 for prevention of ptosis [1, 6] | ED50 for anorexia ([2]; oral)
1 | CCC(O)(CC)C1(c2cccc(Cl)c2)CCN(C)CC1 [Example 8, 4-(3'-Chlorophenyl)-α,α-diethyl-1-methyl-4-piperidinemethanol] | 0.29 mg/kg | 0.26 mg/kg | 20 mg/kg |  |  |  |  | 
2 | CN1CCC(c2ccc(Cl)cc2)(C(C)(C)O)CC1 [Example 7, 4-(4'-Chlorophenyl)-α,α,1-trimethyl-4-piperidinemethanol] | 0.57 mg/kg | 0.33 mg/kg | 20 mg/kg |  |  |  |  | 
3 | CN1CCC(c2cccc(C(F)(F)F)c2)(C(C)(C)O)CC1 [Example 2, 4-(3'-Trifluoromethylphenyl)-α,α,1-trimethyl-4-piperidinemethanol] | 0.01 mg/kg | 0.016 mg/kg | 60 mg/kg |  |  |  |  | 
4 | CCC(C)(O)C1(c2cccc(OC)c2)CCN(C)CC1 (stereo not drawn) [Example 17, 4-(3'-Methoxyphenyl)-α,1-dimethyl-α-ethyl-4-piperidinemethanol] | 0.1 mg/kg | 0.11 mg/kg | 60 mg/kg |  |  |  |  | 
5 | COc1cccc(C2(C(C)(C)O)CCN(C)CC2)c1 [Example 16, 4-(3'-Methoxyphenyl)-α,α,1-trimethyl-4-piperidinemethanol] |  |  | 60 mg/kg | 0.12 mg/kg | 0.077 mg/kg |  |  | 
6 | COc1ccc2cc(C3(C(C)(C)O)CCN(C)CC3)ccc2c1 [Example 39, 4-(6'-Methoxy-2'-naphthyl)-α,α,1-trimethyl-4-piperidinemethanol] | 0.33 mg/kg | < 0.33 mg/kg | 60 mg/kg |  |  |  |  | 
7 | Cc1cccc(C2(C(C)(C)O)CCN(C)CC2)c1 [Example 10, 4-(3'-Tolyl)-α,α,1-trimethyl-4-piperidinemethanol] | 0.04 mg/kg | 0.04 mg/kg | 20 mg/kg |  |  |  |  | 
8 | CN1CCC(c2cccc(C(F)(F)F)c2)(C2(O)CCCC2)CC1 [Example 30, 1-[1'-Methyl-4'-(3"-trifluoromethylphenyl)-4'-piperidinyl]cyclopentanol] | 0.17 mg/kg | 0.084 mg/kg | 60 mg/kg |  |  |  |  | 
9 | CN1CCC(c2cccc(F)c2)(C(C)(C)O)CC1 [Example 4, 4-(3'-Fluorophenyl)-α,α,1-trimethyl-4-piperidinemethanol] | 0.2 mg/kg | 0.12 mg/kg | 60 mg/kg |  |  |  |  | 
10 | CN1CCC(c2cccc(C(F)(F)F)c2)(C(C)(C)O)CC1 [Example 2A, 4-(3'-Trifluoromethylphenyl)-α,α,1-trimethyl-4-piperidinemethanol] |  |  |  |  |  | 0.01 mg/kg | 0.014 mg/kg | 36 mg/kg
11 | CN1CCC(c2ccc(Oc3ccccc3)cc2)(C(C)(C)O)CC1 [Example 32, 4-(4'-Phenoxyphenyl)-α,α,1-trimethyl-4-piperidinemethanol] | > 81 mg/kg | 81 mg/kg | 60 mg/kg |  |  |  |  | 
12 | CN1CCC(c2cccc(Cl)c2)(C(C)(C)O)CC1 [Example 6, 4-(3'-Chlorophenyl)-α,α,1-trimethyl-4-piperidinemethanol] | 0.04 mg/kg | 0.03 mg/kg | 60 mg/kg |  |  |  |  | 
13 | COc1cccc(C2(C(C)(C)O)CCN(Cc3ccccc3)CC2)c1OC [Example 37, 4-(2',3'-Dimethoxyphenyl)-1-benzyl-α,α-dimethyl-4-piperidinemethanol] | > 81 mg/kg | 81 mg/kg | 60 mg/kg |  |  |  |  | 
14 | CCC(C)(O)C1(c2cccc(C(F)(F)F)c2)CCN(C)CC1 (stereo not drawn) [Example 31, 4-(3'-Trifluoromethylphenyl)-α,1-dimethyl-α-ethyl-4-piperidinemethanol] | 0.064 mg/kg | 0.056 mg/kg | 20 mg/kg |  |  |  |  | 
15 | CCN1CCC(c2cccc(C(F)(F)F)c2)(C(C)(C)O)CC1 [Example 41, 4-(3'-Trifluoromethylphenyl)-α,α-dimethyl-1-ethyl-4-piperidinemethanol] | 0.73 mg/kg | 0.46 mg/kg | 60 mg/kg |  |  |  |  | 
16 | CC1CCC(O)(C2(c3cccc(C(F)(F)F)c3)CCN(C)CC2)C1 (single isomer, unassigned; (-)) [Example 47, (-)-cis and trans-3-Methyl-1-[1'-methyl-4'-(3"-trifluoromethylphenyl)-4'-piperidinyl]cyclopentanol] | < 1 mg/kg | < 1 mg/kg |  |  |  |  |  | 
